According to US20220257805A1, “PHARMACEUTICAL FORMULATIONS AND METHODS FOR DELIVERING A THERAPEUTIC, DIAGNOSTIC, OR IMAGING AGENT TO CD206” (Syracuse University, priority 2019, published 2022):
“Also recorded” adds a separate entry of the source.

Legend:
BN16 cells = assay: Flow cytometry of cellular association in BN16 cells (CUBN positive, CD206 negative); assay type: cell-based, Brown Norway rat; conditions: 200 nM, HBSS, 1 h
Method: (§1) Cellular association via the typical holo-IF target receptor, CUBN, was conducted in CUBN positive, CD206 negative (see western blot, FIG. 10) BN16 (Brown Norway rat yolk) cells via flow cytometry using fluorescent B12-Cy5 to show functionalization of the IF-B12 complex in vitro (FIG. 3).
(§2) Flow cytometry: Flow cytometry analyses were carried out on a Becton Dickinson LSRII Cell Analyzer.
(§3) Cell culture: Cell lines J774A.1 (ATCC TIB-67; CD206 positive), CHO-K1 (ATCC CCL-61; control line) and HepG2 (SIGMA 85011430; ASGPR positive) were obtained from the American Type Culture Collection (ATCC). BN16 cells (cubilin positive) were kindly provided by Prof. Pierre Verroust (INSERM, Paris, France). J774A.1 and BN16 cells were cultured as adherent monolayers in DMEM supplemented with 10% FBS and 1% pen/strep (Penicillin-streptomycin solution with 10,000 units penicillin and 10 mg/mL streptomycin in 0.9% NaCl obtained from Thermo Fisher). CHO-K1 were cultured as adherent monolayers in F12-K supplemented with 10% FBS and 1% pen/strep. Cells were incubated at 37° C. with 5% C02. Hank's balanced salt solution (HBSS) was purchased from Sigma. […]
(§4) Flow cytometry measurements of cellular internalization: Cells were plated on a 6-well plate and allowed to adhere for at least 24 h until at least 80% confluency. […] All cells were excited at 640 nm and detected at 660±20 nm.

CHO-K1 cells = assay: Flow cytometry of uptake in CHO-K1 cells (CUBN and CD206 free); assay type: cell-based, Chinese hamster; conditions: 100 nM in HBSS
Method: as §1, §2, §3, §4

HepG2 cells = assay: Flow cytometry of uptake in HepG2 cells (ASGPR positive); assay type: cell-based; conditions: 100 nM in HBSS
Method: as §1, §2, §3, §4

J774A.1 cells = assay: Flow cytometry of uptake in J774A.1 macrophage cells (CUBN-, CD206+), with or without mannan block; assay type: cell-based
Method: Adding mannan (2 mg/mL), 45 minutes prior to, and concomitant with IF-B12-Cy5 incubation, reduced IF-B12-Cy5 uptake (FIG. 3) supporting a mannose receptor mediated process.
as §2
Cell culture: Cell lines J774A.1 (ATCC TIB-67; CD206 positive), CHO-K1 (ATCC CCL-61; control line) and HepG2 (SIGMA 85011430; ASGPR positive) were obtained from the American Type Culture Collection (ATCC). BN16 cells (cubilin positive) were kindly provided by Prof. Pierre Verroust (INSERM, Paris, France). J774A.1 and BN16 cells were cultured as adherent monolayers in DMEM supplemented with 10% FBS and 1% pen/strep (Penicillin-streptomycin solution with 10,000 units penicillin and 10 mg/mL streptomycin in 0.9% NaCl obtained from Thermo Fisher). CHO-K1 were cultured as adherent monolayers in F12-K supplemented with 10% FBS and 1% pen/strep. Cells were incubated at 37° C. with 5% C02. Hank's balanced salt solution (HBSS) was purchased from Sigma. Charcoal stripped fetal bovine serum (FBS) and were purchased from Sigma.
as §4

human gastric IF = biological target: T1, human gastric IF (Homo sapiens, UniProt P27352); assay: IF binding affinity, radiometric chase assay using 57Co-B12; conditions: cold tracer
T1 construct: purchased Xeragenx LLC (St. Louis, Mo., USA); host or cells: Arabidopsis thaliana
Method: To confirm IF binding of ^89Zr-B12, a radiometric chase assay[15] was completed with a ‘cold’ ^91Zr bound to B12 tracer (^91Zr-B12) and compared to free B12, as cyanocobalamin (CN-B12) (FIG. 2). ^91Zr-B12 was made using B12-DFO and chelated to ^91ZrCl4 at pH 7-7.5. IF binding of ^91Zr-B12 was maintained at low nanomolar levels (1.57 nM), similar to CN-B12 control (1.36 nM).
IF binding affinities: To confirm that ^89Zr-B12 will bind to IF, a radiometric chase assay, using ^57Co-B12 was completed (as previously reported)[15] with a cold tracer (^91Zr-B12) and compared to free B12, as cyanocobalamin (CN-B12). Zr-B12 was made using B12-DFO and chelated to ZrCl4 at pH 7.5.

T1 sequence (P27352 19-417): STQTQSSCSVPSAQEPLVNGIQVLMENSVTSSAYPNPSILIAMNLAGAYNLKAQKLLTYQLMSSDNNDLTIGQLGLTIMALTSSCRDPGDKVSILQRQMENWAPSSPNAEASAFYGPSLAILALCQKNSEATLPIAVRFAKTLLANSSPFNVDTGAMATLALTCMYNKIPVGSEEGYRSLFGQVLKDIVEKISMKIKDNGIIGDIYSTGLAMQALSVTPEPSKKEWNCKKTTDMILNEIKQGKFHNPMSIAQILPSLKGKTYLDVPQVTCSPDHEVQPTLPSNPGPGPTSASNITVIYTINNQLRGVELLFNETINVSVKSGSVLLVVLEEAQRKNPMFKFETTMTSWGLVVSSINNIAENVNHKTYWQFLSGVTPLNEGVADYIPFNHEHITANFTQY

IF-B12-Cy5: B12-Cy5 bound to recombinant human intrinsic factor (IF-B12 complex)
cellular association (flow cytometry) at 4° C. (BN16 cells; 4° C.): Reduction in binding (or internalization)
cellular association (flow cytometry) (BN16 cells; 37° C.): significant association
uptake / internalization (flow cytometry) (CHO-K1 cells): Neither compound was internalized
uptake / internalization (flow cytometry) (HepG2 cells): not internalized
binding / uptake (flow cytometry) (J774A.1 cells; 200 nM, HBSS, 1 h, 37° C.): binding
uptake with mannan block (J774A.1 cells; mannan 2 mg/mL 45 minutes prior to and concomitant with incubation): reduced; also recorded: near complete block in uptake

cyanocobalamin [CN-B12]
Kd (human gastric IF): 1.36 nM
